In patent US20060089387A1, “Stabilized pharmaceutical composition comprising antidiabetic agent” (priority 2004, published 2006):

Legend:
[1] = pKa of free rosiglitazone and free pioglitazone; type: physicochemical
[2] = Solubility (complete dissolution) in solvents; type: physicochemical; details: in words

pKa1 [1]	pKa2 [1]	water solubility [2]	SMILES
6.8	6.1	poorly water-soluble	CN(CCOc1ccc(CC2SC(=O)NC2=O)cc1)c1ccccn1 (racemic) [free rosiglitazone, (±)5-[4-[2-(N-methyl-N-(2-pyridyl)amino)ethoxy]benzyl]thiazolidine-2,4-dione]
6.5	6.1	poorly water-soluble	CCc1ccc(CCOc2ccc(CC3SC(=O)NC3=O)cc2)nc1 (racemic) [free pioglitazone, [(±)5-[[2-(5-ethyl-2-pyridinyl)ethoxyl]phenyl]methyl]-thiazolidine-2,4-dione]
